Reference: patent publication US12171813B2, “Methods of and compositions for reducing gene expression and/or activity” (Christiana Care Gene Editing Institute, Inc., priority 2021, dated 2024)

System: NFE2L2 gene
Assay: Screening of SureKill guide RNAs in the NFE2L2 gene for ability to induce indels
Format: cell-based, Human
Details: transfections of individual guide RNAs (spCas9 RNP); NCI-H1703 clone 44-25 cells; DECODR
Description: (§1) Human lung squamous cell carcinoma NCI-H1703 clone 44-25 cells were derived from NCI-H1703 cells (#CRL-5889) which were purchased from ATCC (Manassas, VA, USA). NCI-H1703 clone 44-25 cells contains R34G mutation (C 4 G) in NFE2L2 gene. H1703 clone 44-25 cells were cultured in ATCC formulation RPMI-1640 with 10% FBS. T75 flasks were used and cells were split 1:5 upon reaching 90% confluency. Human lung adenocarcinoma cells (Dist. Lot. No. LG0703-F948-PDC) were acquired from the National Institute of Health's National Cancer Institute's Patient-Derived Models Repository (PDMR). This PDMR cell line contains the L858R mutation (T 4 G) in the EGFR gene. The PDMR cells were maintained in Advanced DMEM/F12 media containing 10% FBS, 0.4 μg/mL hydrocortisone, 0.01 μg/mL EGF Recombinant Human Protein, 24 μg/mL adenine, and 2 mM L-Glutamine. T75s were used and cells were split 1:3 upon reaching 90% confluency. All cultures were maintained in cell culture incubators at 37° C. and 5% CO2.
(§2) Ribonucleoproteins (RNP) are complexed by incubating 250 pmol of purified synthetic gRNA (Synthego Corporation, Redwood City, CA) with 50 pmol of purified spCas9 (Synthego Corporation, Redwood City, CA) at room temperature in nuclease-free 1× TE buffer for 15 minutes.
(§3) Transfections were carried out using the Lonza Nuclefector 4d. Cultures in t75s at 90% confluence were split 1:2 24 hours prior to transfection. RNPs were complexed at 250:50 pmol for 30 minutes prior to transfection, during which time cells were harvested and counted. All reactions were 100 μL and contained 1 e6 cells. Lonza SF solution and Nucleofector program CM-130 were used in all transfections of the H1703 cell line. Lonza SE solution and Nucleofector program CA-137 were used in all transfections of the PDMR. After transfection, 500 μL of media that had been equilibrated to cell culture CO2 and temperature conditions was added to each 100 μL cuvettes. Cuvettes were then placed in the incubator. After 20 minutes, the entire content of each cuvette was seeded into 3 mL of media in a 6 well plate. After 72 hours, samples were dissociated using 200 μL Trypsin 0.25% for 5 minutes. 800 μL culture media was used to quench and split into 1.5 mL tubes each containing 500 μL of the sample. Tubes were spun at 300×g for 5 minutes. One of the tubes was placed in the −20° C. freezer and the other was resuspended in 500 μL of Trizol for RNA extraction and cDNA synthesis.
(§4) All sequencing was performed on the Applied Biosystems SeqStudio. The BigDye Terminator v3.1 Cycle Sequencing Kit was used to prepare samples for sequencing. Resulting sequences were analyzed with DECODR to determine indel rates (Bloh et al., CRISPR J. 4:120-31 (2021)).
In some cancers, human NRF2 contains a mutation, R34G, that creates a novel PAM site making it a targetable sequence by CRISPR. By combining the R34G-targeting CRISPR with another CRISPR of high efficiency in a downstream intronic region, exon skipping can be induced, resulting in a higher efficiency of functional knockout than the R34G targeting CRISPR alone. To find a suitable SureKill guide RNA (gRNA) to pair with the R34G targeting CRISPR, we selected the intron between exons 3 and 4 (FIG. 2). A series of gRNAs were created in this region and screened for their ability to induce indels, a measure of their activity (Table 2).
In Table 2, all sequences are listed from 5′ to 3′. Indel %, a measure of CRISPR activity, is based on transfections of individual guide RNAs. All guide RNAs, with the exception of R34G, were designed in the intron between exons 3 and 4.

In order of rising indel %:
1. NRF2 3-4 SureKill gRNA 29b: NRF2 intron 3-4 guide RNA GATTTATGAGTCTTCCACCAAC, SEQ ID NO:31 (listed as DNA, chemistry not given here)  11.8%
2. NRF2 3-4 SureKill gRNA 29a: NRF2 intron 3-4 guide RNA GATTCCATTTTGTTTTGTAG, SEQ ID NO:30 (listed as DNA, chemistry not given here)  11.85%
3. NRF2 3-4 SureKill gRNA 31: NRF2 intron 3-4 guide RNA GTTTGGTGAGTAAAGAGCCAGC, SEQ ID NO:33 (listed as DNA, chemistry not given here)  14.55%
4. NRF2 3-4 SureKill gRNA 10: NRF2 intron 3-4 guide RNA GGTTTTGTATTGTGTGAA, SEQ ID NO:15 (listed as DNA, chemistry not given here)  32.2%
5. NRF2 3-4 SureKill gRNA 32: NRF2 intron 3-4 guide RNA GGTTATGCTGTCCATGTTTC, SEQ ID NO:34 (listed as DNA, chemistry not given here)  47.8%
6. NRF2 3-4 SureKill gRNA 26: NRF2 intron 3-4 guide RNA GCTTACTCATCCCCTGTTGG, SEQ ID NO:28 (listed as DNA, chemistry not given here)  89.65%

System: NRF2
Assay: cDNA PCR analysis of exon skipping / full-size transcript in NFE2L2
Format: cell-based, Human
Details: gRNA individually applied in the CRISPR reaction; NCI-H1703 clone 44-25 cells
Description: After CRISPR reactions, total RNA was prepared, and cDNA synthesized for PCR amplification of the target region from NRF2. PCR-amplified DNA was then analyzed by electrophoresis through a 1% agarose gel for 75 minutes at 80v. DNA was stained with SYBR Safe. Lanes 1 and 10: NEB 2 Log Ladder; Lane 2: Scrambled gRNA; Lane 3: NRF2 3-4 SureKill gRNA 3 alone; Lane 4: NRF2 3-4 SureKill gRNA 12 alone; Lane 5: NRF2 3-4 SureKill gRNA 14 alone; Lane 6: NRF2 3-4 SureKill gRNA 15 alone; Lane 7: NRF2 3-4 SureKill gRNA 21 alone; Lane 8: NRF2 3-4 SureKill gRNA 25 alone; Lane 9: NRF2 3-4 SureKill gRNA 26 alone. On the left side of the image are markers indicating DNA size in bp.
After CRISPR reactions, total RNA was prepared, and cDNA synthesized for PCR amplification of the target region from NRF2. PCR-amplified DNA was then analyzed by electrophoresis through a 1% agarose gel for 75 minutes at 80v. DNA was stained with SYBR Safe. Lane 1: NEB 2 Log Ladder; Lane 2: Scrambled gRNA; Lane 3: R34G gRNA alone; Lane 4: NRF2 3-4 SureKill gRNA 3+R34G gRNA; Lane 5: NRF2 3-4 SureKill gRNA+R34G gRNA; Lane 6: NRF2 3-4 SureKill gRNA 14+R34G gRNA. […]
Transfections were carried out using the Lonza Nuclefector 4d. […] RNPs were complexed at 250:50 pmol for 30 minutes prior to transfection, during which time cells were harvested and counted. […]

For “NRF2 3-4 SureKill gRNA 26: NRF2 intron 3-4 guide RNA GCTTACTCATCCCCTGTTGG, SEQ ID NO:28 (listed as DNA, chemistry not given here)”, the “exon skipping (cDNA analysis)” value was “some level of exon skipping”.

System: EGFR gene
Assay: Screening of SureKill guide RNAs in the EGFR gene for ability to induce indels
Format: cell-based
Details: transfections of individual guide RNAs (spCas9 RNP); PDMR human lung adenocarcinoma cells with EGFR L858R; DECODR
Description: as §1, §2, §3, §4
Human EGFR is a frequently mutated gene that is associated with cancers. One of the most common mutations is L858R which results in the creation of a novel PAM site, making it a targetable sequence by CRISPR. Like the R34G mutation, the CRISPR designed to target the L858R mutation is not highly efficient on its own. By combining the L858R-targeting CRISPR with another CRISPR of high efficiency in a downstream intronic region, exon skipping can be induced, resulting in a higher efficiency of functional knockout than the L858R targeting CRISPR alone. To find a suitable gRNA to pair with the L858R targeting CRISPR, we selected the intron between exons 21 and 22 (FIG. 6). A series of gRNAs were created in this region and screened for their ability to induce indels, a measure of their activity using DECODR (Bloh et al., CRISPR J. 4:120-31 (2021)) (Table 3).
In Table 3, all sequences are listed from 5′ to 3′. Indel percent, a measure of CRISPR activity, is based on transfections of individual guide RNAs. All guide RNAs, with the exception of L858R, were designed in the intron between exons 21 and 22.

In order of falling indel %:
1. EGFR 21-22 SureKill gRNA 29: EGFR intron 21-22 guide RNA GTTAAACAATACAGCTAGT, SEQ ID NO:52 (listed as DNA, chemistry not given here)  100%
2. EGFR 21-22 SureKill gRNA 23: EGFR intron 21-22 guide RNA GCATTTTCCTGACACCAGGGACC, SEQ ID NO:47 (listed as DNA, chemistry not given here)  96.15%
3. EGFR 21-22 SureKill gRNA 2: EGFR intron 21-22 guide RNA GTATTGTTTAACACATGCAG, SEQ ID NO:10 (listed as DNA, chemistry not given here)  2%
4. EGFR 21-22 SureKill gRNA 10B: EGFR intron 21-22 guide RNA GTATTGTTTAACACATGCAGGGG, SEQ ID NO:36 (listed as DNA, chemistry not given here)  0%
5. EGFR 21-22 SureKill gRNA 10A: EGFR intron 21-22 guide RNA GTTTAACACATGCAGGGG, SEQ ID NO:35 (listed as DNA, chemistry not given here)  0%
